Assay results taken from patent US20210128566A1, “NOVEL FUNCTIONALIZED PURINE-2,6-DIONES AND THEIR USE IN MEDICINE” (THOMAS HELLEDAYS STIFTELSE FÖR MEDICINSK FORSKNING, priority 2017, published 2021).

Molecular target: recombinant human NUDT5 (Homo sapiens, UniProt Q9UKK9)
Assay: NUDT5 inhibitor activity by malachite green reporter assay
Type: biochemical
Conditions: Table 3; 6 nM NUDT5, 50 μM ADP-Ribose, 15 minutes at room temperature
Procedure, shortened: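 Coupled ADP-ribose hydrolysis in 10 mM Tris-acetate pH 8.0, 40 mM NaCl, 10 mM Mg acetate, 0.005% Tween-20, 1 mM DTT: 6 nM NUDT5, 50 μM ADP-Ribose, 10 U/ml alkaline phosphatase, 15 min at room temperature. Pi read by malachite green at 630 nm; compounds 100 μM–1.7 nM, 3-fold; IC50 by curve fit.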

SMILES	IC50 [µM]
CCN1CCN(c2nc3c(c(=O)n(C)c(=O)n3C)n2Cc2nnc(-c3ccc(Cl)c(Cl)c3)o2)CC1 [Example 17, 7-{[5-(3,4-dichlorophenyl)-1,3,4-oxadiazol-2-yl]methyl}-8-(4-ethylpiperazin-1-yl)-1,3-dimethyl-2,3,6,7-tetrahydro-1H-purine-2,6-dione]	0.039
Cn1c(=O)c2c(nc(N3CCNCC3)n2Cc2nnc(-c3ccc(Cl)c(Cl)c3)o2)n(C)c1=O [Example 19, 7-{[5-(3,4-dichlorophenyl)-1,3,4-oxadiazol-2-yl]methyl}-1,3-dimethyl-8-(piperazin-1-yl)-2,3,6,7-tetrahydro-1H-purine-2,6-dione]	0.0291
CCCCN1CCN(c2nc3c(c(=O)n(C)c(=O)n3C)n2Cc2nnc(-c3ccc(Cl)c(Cl)c3)o2)CC1 [Example 16, 8-(4-butylpiperazin-1-yl)-7-{[5-(3,4-dichlorophenyl)-1,3,4-oxadiazol-2-yl]methyl}-1,3-dimethyl-2,3,6,7-tetrahydro-1H-purine-2,6-dione]	0.0538
Cc1cccc(-c2nnc(Cn3c(N4CCN(C5CCCCC5)CC4)nc4c3c(=O)n(C)c(=O)n4C)o2)c1 [Example 59, 8-(4-cyclohexylpiperazin-1-yl)-1,3-dimethyl-7-{[5-(3-methylphenyl)-1,3,4-oxadiazol-2-yl]methyl}-2,3,6,7-tetrahydro-1H-purine-2,6-dione]	> 1

Results, then the compound that gave them:

IC50 [µM]	SMILES
0.324	Cn1c(=O)c2c(nc(N3CC(NC(=O)OC(C)(C)C)C3)n2Cc2nnc(-c3ccc(Cl)c(Cl)c3)o2)n(C)c1=O [Example 26, tert-butyl N-[1-(7-{[5-(3,4-dichlorophenyl)-1,3,4-oxadiazol-2-yl]methyl}-1,3-dimethyl-2,6-dioxo-2,3,6,7-tetrahydro-1H-purin-8-yl)azetidin-3-yl]carbamate]
0.0268	COC1CCN(c2nc3c(c(=O)n(C)c(=O)n3C)n2Cc2nnc(-c3ccc(Cl)c(Cl)c3)o2)CC1 [Example 43, 7-{[5-(3,4-dichlorophenyl)-1,3,4-oxadiazol-2-yl]methyl}-8-(4-methoxypiperidin-1-yl)-1,3-dimethyl-2,3,6,7-tetrahydro-1H-purine-2,6-dione]
0.034	Cn1c(=O)c2c(nc(N3CCC3)n2Cc2nnc(-c3ccc(Cl)c(Cl)c3)o2)n(C)c1=O [Example 36, 8-(azetidin-1-yl)-7-{[5-(3,4-dichlorophenyl)-1,3,4-oxadiazol-2-yl]methyl}-1,3-dimethyl-2,3,6,7-tetrahydro-1H-purine-2,6-dione]
0.759	Cn1c(=O)c2c(nc(N3CCOCC3)n2Cc2nnc(-c3ccc(Cl)c(Cl)c3)o2)n(C)c1=O [Example 13, 7-{[5-(3,4-dichlorophenyl)-1,3,4-oxadiazol-2-yl]methyl}-1,3-dimethyl-8-(morpholin-4-yl)-2,3,6,7-tetrahydro-1H-purine-2,6-dione]
0.0185	Cn1c(=O)c2c(nc(N3CCC(CN)CC3)n2Cc2nnc(-c3ccc(Cl)c(Cl)c3)o2)n(C)c1=O [Example 38, 8-[4-(aminomethyl)piperidin-1-yl]-7-{[5-(3,4-dichlorophenyl)-1,3,4-oxadiazol-2-yl)methyl}-1,3-dimethyl-2,3,6,7-tetrahydro-1H-purine-2,6-dione]

Same assay, conditions: Table 4; 6 nM NUDT5, 50 μM ADP-Ribose, 15 minutes at room temperature

SMILES	IC50 [µM]
Cn1c(=O)c2c(nc(N3CCNCC3)n2Cc2cnc(-c3ccc(Cl)cc3)s2)n(C)c1=O [Example 76, 7-{[2-(4-chlorophenyl)-1,3-thiazol-5-yl]methyl}-1,3-dimethyl-8-(piperazin-1-yl)-2,3,6,7-tetrahydro-1H-purine-2,6-dione]	0.376
COc1cc(-c2nnc(Cn3c(N4CCCNCC4)nc4c3c(=O)n(C)c(=O)n4C)o2)ccc1C [Example 131, 8-(1,4-diazepan-1-yl)-7-{[5-(3-methoxy-4-methylphenyl)-1,3,4-oxadiazol-2-yl]methyl}-1,3-dimethyl-2,3,6,7-tetrahydro-1H-purine-2,6-dione]	0.0607
COc1cc(-c2nnc(Cn3c(N(C)CCN(C)C)nc4c3c(=O)n(C)c(=O)n4C)o2)ccc1C [Example 137, 8-{[2-(dimethylamino)ethyl](methyl)amino}-7-{[5-(3-methoxy-4-methylphenyl)-1,3,4-oxadiazol-2-yl]methyl}-1,3-dimethyl-2,3,6,7-tetrahydro-1H-purine-2,6-dione]	0.0241
COc1ccc(-c2cc(Cn3c(Cl)nc4c3c(=O)n(C)c(=O)n4C)on2)cc1 [Example 77, 8-chloro-7-{[3-(4-methoxyphenyl)-1,2-oxazol-5-yl]methyl}-1,3-dimethyl-2,3,6,7-tetrahydro-1H-purine-2,6-dione]	19.7
COc1ccc(-c2nnc(Cn3c(N4CCNCC4)nc4c3c(=O)n(C)c(=O)n4C)o2)cc1OC [Example 123, 7-{[5-(3,4-dimethoxyphenyl)-1,3,4-oxadiazol-2-yl]methyl}-1,3-dimethyl-8-(piperazin-1-yl)-2,3,6,7-tetrahydro-1H-purine-2,6-dione]	0.169

Further lines, results first:

IC50 [µM]	SMILES
0.184	COc1ccc(CNc2nc3c(c(=O)n(C)c(=O)n3C)n2Cc2nnc(-c3ccc(Cl)c(Cl)c3)o2)c(OC)c1 [Example 86, 7-{[5-(3,4-dichlorophenyl)-1,3,4-oxadiazol-2-yl]methyl}-8-{[(2,4-dimethoxyphenyl)methyl]amino}-1,3-dimethyl-2,3,6,7-tetrahydro-1H-purine-2,6-dione]
0.0582	Cn1c(=O)c2c(nc(-n3ccnc3)n2Cc2nnc(-c3ccc(Cl)c(Cl)c3)o2)n(C)c1=O [Example 66, 7-{[5-(3,4-dichlorophenyl)-1,3,4-oxadiazol-2-yl]methyl}-8-(1H-imidazol-1-yl)-1,3-dimethyl-2,3,6,7-tetrahydro-1H-purine-2,6-dione]
0.0165	Cn1c(=O)c2c(nc(N)n2Cc2nnc(-c3ccc(Cl)c(Cl)c3)o2)n(C)c1=O [Example 87, 8-amino-7-{[5-(3,4-dichlorophenyl)-1,3,4-oxadiazol-2-yl]methyl}-1,3-dimethyl-2,3,6,7-tetrahydro-1H-purine-2,6-dione]

Tested on: T47D^WT cells
Assay: Nuclear-targeted luciferase reporter of nuclear ATP production after R5020 stimulation
Type: cell-based
Conditions: hormone-starved T47D^WT cells, compound for two hours, then R5020; Compound 19 at 1.5 μM, Compounds 16/17 at 15 μM
Method: Top, a representative measurement of bioluminescence intensity over 60 minutes of R5020 treatment; bottom, box-and-whisker plots of bioluminescence quantitations from six independent experiments (center line, median; box limits, upper and lower quartiles; whiskers, minima and maxima; individual data points also shown). ns—not significant, *—p<0.05, **—p<0.01, ***—p<0.001; repeated measures two-way ANOVA analysis.
In HR+ breast cancer cells, NUDT5 activity is required to produce ATP in the nucleus following hormone stimulation (Wright, R. H. G. et al., Science, 352, 1221-1225 (2016)). A nuclear-targeted luciferase reporter system was employed to monitor ATP production after hormone stimulation.
Hormone-starved T47D^WT cells were treated with example compounds as described herein for two hours and then stimulated with the progesterone receptor agonist, R5020, for the time points indicated.

SMILES	nuclear luminescence (nuclear ATP production)
CCN1CCN(c2nc3c(c(=O)n(C)c(=O)n3C)n2Cc2nnc(-c3ccc(Cl)c(Cl)c3)o2)CC1 [Example 17, 7-{[5-(3,4-dichlorophenyl)-1,3,4-oxadiazol-2-yl]methyl}-8-(4-ethylpiperazin-1-yl)-1,3-dimethyl-2,3,6,7-tetrahydro-1H-purine-2,6-dione]	Strong luminescence
Cn1c(=O)c2c(nc(N3CCNCC3)n2Cc2nnc(-c3ccc(Cl)c(Cl)c3)o2)n(C)c1=O [Example 19, 7-{[5-(3,4-dichlorophenyl)-1,3,4-oxadiazol-2-yl]methyl}-1,3-dimethyl-8-(piperazin-1-yl)-2,3,6,7-tetrahydro-1H-purine-2,6-dione]	reduced nuclear luminescence
CCCCN1CCN(c2nc3c(c(=O)n(C)c(=O)n3C)n2Cc2nnc(-c3ccc(Cl)c(Cl)c3)o2)CC1 [Example 16, 8-(4-butylpiperazin-1-yl)-7-{[5-(3,4-dichlorophenyl)-1,3,4-oxadiazol-2-yl]methyl}-1,3-dimethyl-2,3,6,7-tetrahydro-1H-purine-2,6-dione]	Strong luminescence
